# Patent US7101878B1 (Agouron Pharmaceuticals, Inc., priority 1998, dated 2006)
# Biological target: T1, mouse GnRH receptor (Mus musculus, UniProt Q01776)
# T1 construct: expressed in transfected cells; host or cells: 293 cells
# T1 sequence (Q01776 1-327): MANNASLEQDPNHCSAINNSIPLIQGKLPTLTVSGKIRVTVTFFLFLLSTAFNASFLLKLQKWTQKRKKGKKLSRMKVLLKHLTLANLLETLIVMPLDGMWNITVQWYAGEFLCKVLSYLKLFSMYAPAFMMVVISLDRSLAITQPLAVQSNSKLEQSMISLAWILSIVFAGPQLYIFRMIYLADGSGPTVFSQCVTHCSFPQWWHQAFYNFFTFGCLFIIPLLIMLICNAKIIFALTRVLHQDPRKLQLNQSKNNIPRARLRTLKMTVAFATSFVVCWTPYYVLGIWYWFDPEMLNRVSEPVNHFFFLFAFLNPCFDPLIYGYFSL
# Test: Radioligand binding, 125I-GnRH-A, 293 cells expressing mouse GnRH receptors
# Conditions: 1 h, substrate remaining; 10 uM compound; closer to zero = closer to 100% inhibition; read-out: S%R 10 uM mGnRHR
# Outline: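 Bound label captured on 0.1% polyethyleneimine-treated GF/C filters, washed three times with PBS, counted. IC50 derived; identical set-up for every species.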
row,Structure (SMILES),remaining activity at 10 µM [%]
1,Cc1cc2c(cc1Cc1ccc(C(=O)N(Cc3ccoc3)C3CCN(Cc4ccccc4)C3)o1)C(C)(C)CCC2(C)C (stereo not shown) [Compound 618],9
2,Cc1cc2c(cc1Cc1ccc(C(=O)N(C)CCC3OCCO3)o1)C(C)(C)CCC2(C)C [Compound 619],5
3,Cc1cc2c(cc1Cc1ccc(C(=O)NCC(C)(C)CN(C)C)o1)C(C)(C)CCC2(C)C [Compound 620],3
4,Cc1cc2c(cc1Cc1ccc(C(=O)N3CCCC3C(=O)NC(c3ccccc3)c3ccccc3)o1)C(C)(C)CCC2(C)C (stereo not shown) [Compound 621],43
5,Cc1cc2c(cc1Cc1ccc(C(=O)NCCc3ccc(Oc4ccccc4)cc3)o1)C(C)(C)CCC2(C)C [Compound 622],43
6,Cc1cc2c(cc1Cc1ccc(C(=O)N(Cc3cccn3C)C3CCN(Cc4ccccc4)C3)o1)C(C)(C)CCC2(C)C (stereo not shown) [Compound 623],2
7,C=C(C)CNC(=O)c1ccc(Cc2cc3c(cc2C)C(C)(C)CCC3(C)C)o1 [Compound 624],8
8,Cc1cc2c(cc1Cc1ccc(C(=O)NC(C)CN(C)C)o1)C(C)(C)CCC2(C)C (stereo not shown) [Compound 625],8
9,Cc1cc2c(cc1Cc1ccc(C(=O)NC3CCS(=O)(=O)C3)o1)C(C)(C)CCC2(C)C (stereo not shown) [Compound 626],10
10,Cc1cc2c(cc1Cc1ccc(C(=O)NCCCCCCN(C)C)o1)C(C)(C)CCC2(C)C [Compound 627],-6
11,CCOC(=O)N1CCN(C(=O)c2ccc(Cc3cc4c(cc3C)C(C)(C)CCC4(C)C)o2)CC1 [Compound 628],35
12,Cc1cc2c(cc1Cc1ccc(C(=O)N(Cc3ccccc3)C(C)C)o1)C(C)(C)CCC2(C)C [Compound 629],17
13,Cc1cc2c(cc1Cc1ccc(C(=O)N(CCC(c3ccccc3)c3ccccc3)Cc3ccco3)o1)C(C)(C)CCC2(C)C [Compound 630],58
14,Cc1cc2c(cc1Cc1ccc(C(=O)N(Cc3cccc4ccccc34)C3CCN(Cc4ccccc4)C3)o1)C(C)(C)CCC2(C)C (stereo not shown) [Compound 631],43
15,Cc1cc2c(cc1Cc1ccc(C(=O)NCCc3ccc(F)cc3)o1)C(C)(C)CCC2(C)C [Compound 632],21
16,Cc1cc2c(cc1Cc1ccc(C(=O)NC(C)(C)CO)o1)C(C)(C)CCC2(C)C [Compound 633],10
17,Cc1cc2c(cc1Cc1ccc(C(=O)N3CCC4(C)CC(C)(C)CC45CC35)o1)C(C)(C)CCC2(C)C (stereo not shown) [Compound 634],1

row,Structure (SMILES),remaining activity at 10 µM [%]
1,Cc1cccc(N2CCN(C(=O)c3ccc(Cc4cc5c(cc4C)C(C)(C)CCC5(C)C)o3)CC2C)c1 (stereo not shown) [Compound 635],27
2,Cc1cc2c(cc1Cc1ccc(C(=O)N(C)CCC#N)o1)C(C)(C)CCC2(C)C [Compound 636],17
3,Cc1cc2c(cc1Cc1ccc(C(=O)N(Cc3ccccc3)[C@@H](C)c3ccccc3)o1)C(C)(C)CCC2(C)C [Compound 637],55
4,Cc1cc2c(cc1Cc1ccc(C(=O)N(Cc3ccc(C(C)C)cc3)C3CCN(Cc4ccccc4)C3)o1)C(C)(C)CCC2(C)C (stereo not shown) [Compound 638],53
5,Cc1cc2c(cc1Cc1ccc(C(=O)NC(C)c3ccc([N+](=O)[O-])cc3)o1)C(C)(C)CCC2(C)C (stereo not shown) [Compound 639],57
6,CSCCCNC(=O)c1ccc(Cc2cc3c(cc2C)C(C)(C)CCC3(C)C)o1 [Compound 640],2
7,Cc1cc2c(cc1Cc1ccc(C(=O)N3CCC(O)CC3)o1)C(C)(C)CCC2(C)C [Compound 641],23
8,Cc1cc2c(cc1Cc1ccc(C(=O)NCCc3ccc(Cl)cc3)o1)C(C)(C)CCC2(C)C [Compound 642],19
9,COc1ccc(CCNC(=O)c2ccc(Cc3cc4c(cc3C)C(C)(C)CCC4(C)C)o2)cc1Br [Compound 643],23
10,CCN(Cc1ccc(C)cc1)C(=O)c1ccc(Cc2cc3c(cc2C)C(C)(C)CCC3(C)C)o1 [Compound 644],22
11,Cc1cc2c(cc1Cc1ccc(C(=O)N(CCC(c3ccccc3)c3ccccc3)Cc3ccccn3)o1)C(C)(C)CCC2(C)C [Compound 645],51
12,CCN1CC(N(Cc2ccccc2C#N)C(=O)c2ccc(Cc3cc4c(cc3C)C(C)(C)CCC4(C)C)o2)CN1CC [Compound 646],0
13,COc1cc(OC)cc(N2CCN(C(=O)c3ccc(Cc4cc5c(cc4C)C(C)(C)CCC5(C)C)o3)CC2)c1 [Compound 647],35
14,CSCCNC(=O)c1ccc(Cc2cc3c(cc2C)C(C)(C)CCC3(C)C)o1 [Compound 648],4
15,Cc1cc2c(cc1Cc1ccc(C(=O)N3CCC4(CC3)C(=O)NCN4c3ccccc3)o1)C(C)(C)CCC2(C)C [Compound 649],28
16,Cc1cc2c(cc1Cc1ccc(C(=O)NC3CCCCC3O)o1)C(C)(C)CCC2(C)C (stereo not shown) [Compound 650],4

# Other lines, results leading:
row,remaining activity at 10 µM [%],Structure (SMILES)
1,15,Cc1cc2c(cc1Cc1ccc(C(=O)N3CCCC3C(=O)OCc3ccccc3)o1)C(C)(C)CCC2(C)C (stereo not shown) [Compound 651]
2,19,Cc1cc2c(cc1Cc1ccc(C(=O)N3CCC(NC(=O)OC(C)(C)C)C3)o1)C(C)(C)CCC2(C)C (stereo not shown) [Compound 652]
3,6,CCN1CC(N(Cc2ccc(N(C)C)cc2)C(=O)c2ccc(Cc3cc4c(cc3C)C(C)(C)CCC4(C)C)o2)CN1CC [Compound 653]
4,34,Cc1cc2c(cc1Cc1ccc(C(=O)NC(C)(C)CC(C)(C)C)o1)C(C)(C)CCC2(C)C [Compound 654]
5,2,CCSCCNC(=O)c1ccc(Cc2cc3c(cc2C)C(C)(C)CCC3(C)C)o1 [Compound 655]
6,52,Cc1cc2c(cc1Cc1ccc(C(=O)N3CCC(O)(c4ccc(Br)cc4)CC3)o1)C(C)(C)CCC2(C)C [Compound 656]
7,3,Cc1cc2c(cc1Cc1ccc(C(=O)N3CCCC(C)(C)C3)o1)C(C)(C)CCC2(C)C [Compound 657]
8,35,Cc1cc2c(cc1Cc1ccc(C(=O)N3CCN(Cc4ccc(C(C)(C)C)cc4)CC3)o1)C(C)(C)CCC2(C)C [Compound 658]
9,-2,Cc1cc2c(cc1Cc1ccc(C(=O)N3CCCC3C)o1)C(C)(C)CCC2(C)C (stereo not shown) [Compound 659]
10,-4,CCN1CC(N(CCC(C)CCCC(C)(C)O)C(=O)c2ccc(Cc3cc4c(cc3C)C(C)(C)CCC4(C)C)o2)CN1CC (stereo not shown) [Compound 660]
11,41,Cc1cc2c(cc1Cc1ccc(C(=O)N3CCC(NC(=O)C(F)(F)F)C3)o1)C(C)(C)CCC2(C)C (stereo not shown) [Compound 661]
12,3,COC(OC)C(C)NC(=O)c1ccc(Cc2cc3c(cc2C)C(C)(C)CCC3(C)C)o1 (stereo not shown) [Compound 662]
13,25,COc1cccc(N2CCN(C(=O)c3ccc(Cc4cc5c(cc4C)C(C)(C)CCC5(C)C)o3)CC2C)c1 (stereo not shown) [Compound 663]
14,1,CCN(C(=O)c1ccc(Cc2cc3c(cc2C)C(C)(C)CCC3(C)C)o1)C1CCCCC1 [Compound 664]
15,12,Cc1cc2c(cc1Cc1ccc(C(=O)N(Cc3cccnc3)Cc3ccco3)o1)C(C)(C)CCC2(C)C [Compound 665]
16,24,CCC(CC)NC(=O)c1ccc(Cc2cc3c(cc2C)C(C)(C)CCC3(C)C)o1 [Compound 666]

row,remaining activity at 10 µM [%],Structure (SMILES)
1,39,Cc1cc2c(cc1Cc1ccc(C(=O)N(CCc3ccccc3)Cc3ccoc3)o1)C(C)(C)CCC2(C)C [Compound 667]
2,6,CCN1CC(N(CCC(C)c2ccccc2)C(=O)c2ccc(Cc3cc4c(cc3C)C(C)(C)CCC4(C)C)o2)CN1CC (stereo not shown) [Compound 668]
3,-3,CCCOCCNC(=O)c1ccc(Cc2cc3c(cc2C)C(C)(C)CCC3(C)C)o1 [Compound 669]
4,16,Cc1cc2c(cc1Cc1ccc(C(=O)N3CCC(n4c(=O)[nH]c5ccccc54)CC3)o1)C(C)(C)CCC2(C)C [Compound 670]
5,12,Cc1cc2c(cc1Cc1ccc(C(=O)NCCC(C)O)o1)C(C)(C)CCC2(C)C (stereo not shown) [Compound 671]
6,23,Cc1cc2c(cc1Cc1ccc(C(=O)N(CCC#N)CCC#N)o1)C(C)(C)CCC2(C)C [Compound 672]
7,2,CCCC(CO)NC(=O)c1ccc(Cc2cc3c(cc2C)C(C)(C)CCC3(C)C)o1 (stereo not shown) [Compound 673]
8,10,COc1ccccc1CN(C(=O)c1ccc(Cc2cc3c(cc2C)C(C)(C)CCC3(C)C)o1)C1CCN(Cc2ccccc2)C1 (stereo not shown) [Compound 674]
9,-5,CSCCC(CO)NC(=O)c1ccc(Cc2cc3c(cc2C)C(C)(C)CCC3(C)C)o1 (stereo not shown) [Compound 675]
10,-4,Cc1cc2c(cc1Cc1ccc(C(=O)NCCC3OCCO3)o1)C(C)(C)CCC2(C)C [Compound 676]
11,54,Cc1cc2c(cc1Cc1ccc(C(=O)N3CCc4ccccc4C3Cc3ccccc3)o1)C(C)(C)CCC2(C)C (stereo not shown) [Compound 677]
12,17,Cc1cc2c(cc1Cc1ccc(C(=O)NCCc3c[nH]c4ccc(O)cc34)o1)C(C)(C)CCC2(C)C [Compound 678]
13,1,CCC(O)CNC(=O)c1ccc(Cc2cc3c(cc2C)C(C)(C)CCC3(C)C)o1 (stereo not shown) [Compound 679]
14,0,CCCCN(C)C(=O)c1ccc(Cc2cc3c(cc2C)C(C)(C)CCC3(C)C)o1 [Compound 680]
15,6,Cc1cc2c(cc1Cc1ccc(C(=O)N(Cc3ccco3)C3CCN(Cc4ccccc4)C3)o1)C(C)(C)CCC2(C)C (stereo not shown) [Compound 681]
